Assay: DPPH radical scavenging antioxidant test
Assay type: biochemical
Details: 517 nm; for Inhibition (radical scavenging inhibition): 0.2 mL DPPH (0.75 mM), compound 3 μM in ethanol, 30 min incubation in the dark
Protocol: The antioxidant properties of the 8-((3-formyl-4-hydroxyphenyl)diazenyl)naphthalene-1,3-disulfonic acid were studied by adding 0.2 mL DPPH (0.75 mM)) to compound 8-((3-formyl-4-hydroxyphenyl)diazenyl)naphthalene-1,3-disulfonic acid (III) (3 μM) in ethanol. After 30 min of incubation in the dark, the absorbance was read against a blank at 517 nm. Ascorbic acid (vitamin C) was used as standard antioxidants (positive control). A blank sample was prepared by 0.2 ml of DPPH in 3 ml ethanol. A negative control sample was run using ethanol instead of the sample. The radical scavenging inhibition was calculated using the following equation: […]
The antioxidant activity for the synthesized compound is listed in Table 1, using Vitamin C as a reference.

| Compound | Inhibition (radical scavenging inhibition) [%] | antioxidant potential compared to vitamin C (in words) (DPPH in vitro test, vitamin C as positive control) |
| --- | --- | --- |
| O=Cc1cc(N=Nc2cccc3cc(S(=O)(=O)O)cc(S(=O)(=O)O)c23)ccc1O [Product III, 8-((3-formyl-4-hydroxyphenyl)diazenyl)naphthalene-1,3-disulfonic acid] | 54 | high potential as an antioxidant compared to vitamin C |
| O=C1O[C@H]([C@@H](O)CO)C(O)=C1O [vit c, Ascorbic acid, reference compound] | 74 | – |

Reference: US12264127B1, “8-((3-formyl-4-hydroxyphenyl)diazenyl)naphthalene-1,3-disulfonic acid as an antioxidant compound” (KING FAISAL UNIVERSITY, priority 2023, dated 2025)
